{"source": "patent US20160187321A1", "about": "“INDUCED EXPRESSION OF PROTEINS IN INSECT CELLS” (UNIVERSITY OF FLORIDA RESEARCH FOUNDATION, INC., priority 2013, published 2016)", "key": {"[1]": {"tested_on": "muscarinic-type receptor", "experiment": "Calcium fluorescence response to muscarinic agonists in Sua1B cells", "format": "cell-based, Anopheles gambiae", "text": "(§1) Cell Culture. […] Cells were passed every 3-5 days.\n(§2) Differentiation with 20-Hydroxyecdysone."}, "[2]": {"tested_on": "nicotinic acetylcholine receptors", "experiment": "Imidacloprid-induced calcium fluorescence in Sua1B cells", "format": "cell-based, Anopheles gambiae"}, "[3]": {"tested_on": "nicotinic acetylcholine receptors", "experiment": "Patch clamp of Sf21 cell response to imidacloprid", "format": "cell-based, lepidopteran", "conditions": "Sf21 cell after 6 hours in 20-HE", "experimental": "(§3) FIGS. 8A-8C. […] Imidacloprid-induced calcium fluorescence is blocked by 100 μM mecamylamine (MML). […] FIG. 8B: Response of a patch clamped Sf21 cell to imidacloprid treatment after 6 hours in 20-HE. […] The current voltage plot was generated by subtracting TEA-insensitive current from total current at each voltage."}, "[4]": {"tested_on": "nicotinic acetylcholine receptors", "experiment": "Imidacloprid-induced calcium fluorescence in Sf21 cells", "format": "cell-based, lepidopteran", "experimental": "as §3\nFIG. 9. […] Expression of IMI-induced fluorescence is the same, with even lower vehicle background with caffeine, at least in this particular experiment."}, "[5]": {"tested_on": "potassium channels", "experiment": "Thallium flux (FluxOR) fluorescence assay of potassium channel function in Sua1B cells", "format": "cell-based, Anopheles gambiae", "experimental": "(§4) Differentiation with 20-Hydroxyecdysone. […] Controls had 0.1% DMSO.\nThallium Flux Measurements of Potassium Channel Pharmacology. The FluxOR™ potassium channel assay (Molecular Probes, Inc., Eugene, Oreg., USA) was performed as outlined in the product information sheet and performed on the SyntaxMax plate reader (BioTek, Winooski, Vt., USA)."}, "[6]": {"tested_on": "AgKv2 K+ channels", "experiment": "Whole cell patch clamp of AgKv2 K+ channels expressed in HEK293 cells", "format": "cell-based, Anopheles gambiae"}, "[7]": {"tested_on": "Kv2 delayed-rectifier potassium channels (AgKv2)", "experiment": "Whole cell patch clamp of potassium channel currents in Sua1B cells", "format": "cell-based, Anopheles gambiae", "text": "as §1, §4"}, "[8]": {"tested_on": "outward potassium currents similar to Kv2 currents", "experiment": "Patch clamp of potassium currents in Sf21 cells", "format": "cell-based, lepidopteran", "conditions": "3 hours treatment", "experimental": "as §3"}, "[9]": {"tested_on": "Kv2 delayed-rectifier K+ channel (AgKv2), native channel current in Sua1B cells", "conditions": "read-out: IC50 (TEA inhibition of K+ current), FIG. 5F, whole cell patch clamp, holding potential −80 mV, steps up to +100 mV, TEA 0.3-30 mM traces, 20-HE added 3 hours before experiments (general method)", "text": "as §1, §2"}, "[10]": {"tested_on": "Anopheles gambiae Kv2 (AgKv2) channel (Accession # XM_315955.4) expressed in HEK293 cells", "conditions": "read-out: EC50 (TEA inhibition of K+ current); FIG. 6E; HEK293 cells with AgKv2 gene, CMV promoter, tetracycline-induced (w/ TC); whole cell patch clamp, holding potential −80 mV, steps up to +100 mV"}}, "note": "pEC50, pIC50: −log10 of the molar value. Entries after “also recorded” stand apart in the source; their conditions may differ. Like-named read-outs stand apart in the source and are kept apart here."}
{"smiles": "CC(C[N+](C)(C)C)OC(N)=O", "note": "(centres unmarked) [bethanechol]", "values": [{"measurement": "fold less potent response in the absence of insect hormone", "setting": "[1]", "value": "~200", "unit": "fold"}, {"measurement": "pEC50", "setting": "[1]; read-out: EC50 (concentration where the response is half maximal), calcium fluorescence", "value": 6.60}, {"measurement": "pEC50", "setting": "[1]; read-out: EC50, calcium fluorescence", "value": 4.32}]}
{"smiles": "O=[N+]([O-])NC1=NCCN1Cc1ccc(Cl)nc1", "note": "[imidacloprid]", "values": [{"measurement": "calcium fluorescence versus controls", "setting": "[2]; Sua1B cells in the absence of 20-HE", "value": "no imidacloprid effect"}, {"measurement": "calcium fluorescence versus controls", "setting": "[2]; Sua1B cells, 3 hours of 20-HE treatment", "value": "increases calcium fluorescence above controls"}, {"measurement": "current response of patch clamped cell", "setting": "[3]", "value": "inward current"}, {"measurement": "calcium fluorescence compared to matched controls", "setting": "[4]; 10 μM, Sf21 cells, 6 hours of exposure to 20-HE", "value": "greater imidacloprid-induced calcium fluorescence"}, {"measurement": "calcium fluorescence", "setting": "[4]; Sf21 cells without 20-HE", "value": "reduced effect"}]}
{"smiles": "Cn1c(=O)c2c(ncn2C)n(C)c1=O", "note": "[caffeine]", "values": [{"measurement": "expression of imidacloprid sensitivity (IMI-induced fluorescence)", "setting": "[4]; Sf21 cells, 6 hours exposure, 10 μM imidacloprid", "value": "approximately the same effect as caffeine and 20-HE"}]}
{"smiles": "NC1=N[C@H](O)[C@H]2[C@H]3O[C@]4(O)O[C@@H]([C@@H](O)[C@@]2(N1)[C@@H]4O)[C@]3(O)CO", "note": "[tetrodotoxin]", "values": [{"measurement": "effect on thallium ion uptake", "setting": "[5]", "value": "no effect"}]}
{"smiles": "Nc1ccncc1", "note": "[4-AP, 4-aminopyridine]", "values": [{"measurement": "effect on thallium ion uptake", "setting": "[5]; Sua1B cells induced by 20-HE", "value": "blocking action"}, {"measurement": "inhibition of AgKv2 K+ current", "setting": "[6]; HEK293 cells expressing the AgKv2 gene", "value": "inhibited"}, {"measurement": "inhibition of Kv2 (AgKv2) K+ currents", "setting": "[7]; 20-HE-treated Sua1B cells", "value": "inhibited AgKv2 currents"}, {"measurement": "inhibition of Kv2 (AgKv2) K+ currents", "setting": "[7]; 20-HE-treated Sua1B cells, listed as 4-aminopyridine", "value": "inhibited"}]}
{"smiles": "CNC1(C)C2CCC(C2)C1(C)C", "note": "(centres unmarked) [mecamylamine]", "values": [{"measurement": "block of imidacloprid-increased calcium fluorescence", "setting": "[2]; 100 μM, Sua1B cells, 3 hours of 20-HE treatment", "value": "blocked"}, {"measurement": "block of imidacloprid-induced calcium fluorescence", "setting": "[4]; 100 μM, Sf21 cells, 6 hours 20-HE", "value": "blocked"}, {"measurement": "reduction of imidacloprid-induced calcium fluorescence", "setting": "[4]; Sf21 cells without 20-HE", "value": "variable and not statistically significant reduction"}]}
{"smiles": "CC(C)(O)CC[C@@H](O)[C@](C)(O)[C@H]1CC[C@@]2(O)C3=CC(=O)[C@@H]4C[C@@H](O)[C@@H](O)C[C@]4(C)[C@H]3CC[C@]12C", "note": "[20-HE, 20-hydroxyecdysone]", "values": [{"measurement": "expression of potassium currents", "setting": "[8]", "value": "expressing outward potassium currents"}, {"measurement": "K+ channel expression (thallium fluorescence)", "setting": "[5]; Sua1B cells, 42 μM 20-HE, time dependence", "value": "detectable ion channel expression in hours"}, {"measurement": "Maximal increase of AgKv2 channel expression (current)", "setting": "[7]; 20-HE treatment of Sua1B cells", "value": 2000, "unit": "pA"}, {"measurement": "time after treatment at which Kv2 delayed-rectifier potassium channels are expressed", "setting": "[7]; Sua1B cells, whole cell patch clamp", "value": "≤ 3", "unit": "h"}, {"measurement": "expression of nicotinic acetylcholine receptors", "setting": "[4]; Sf21 cells, 6 hours of exposure", "value": "enhances expression"}]}
{"smiles": "CC[N+](CC)(CC)CC", "note": "[TEA, tetraethylammonium]", "values": [{"measurement": "pIC50", "setting": "[9]", "value": 2.10}, {"measurement": "pEC50", "setting": "[10]", "value": 2.89}, {"measurement": "inhibition of AgKv2 K+ current", "setting": "[6]", "value": "inhibited; also recorded: Inhibition of potassium current"}, {"measurement": "inhibition of Kv2 (AgKv2) K+ currents", "setting": "[7]", "value": "inhibited AgKv2 currents; also recorded: Inhibition of K^+ current"}]}
